Marks after values point to notes of the source that are not given here.
Legend:
P-gp = P-gp (Homo sapiens, UniProt P08183)
[1] = test system: TK6, and human hepatic HepaRG cells; conditions: 25 µM; cited from earlier work
Caco-2 cells [2] = conditions: human (Caco-2), mouse (RAW 264.7)
epithelial cell layers = conditions: after 24 h; cited from earlier work
cells = conditions: cited from earlier work
mice = conditions: mouse, in vivo, po; cited from earlier work
HEK293T = type: cell-based, human
in vitro = conditions: human (HepG2, Caco-2, HEK 293T); mouse (RAW 264.7)
HEK293 cells = conditions: for 2 h; cited from earlier work
Caco-2 cells [3] = conditions: cited from earlier work
Caco-2 cells [4] = conditions: cited from earlier work; remark: listed apart in the source
[5] = test system: human small intestinal cells; conditions: read-out: IC50 (not achieved up to); cited from earlier work
[6] = test system: human colon adenocarcinoma HT29 cells; conditions: cited from earlier work

Chain of P-gp (P08183 whole entry, looked up): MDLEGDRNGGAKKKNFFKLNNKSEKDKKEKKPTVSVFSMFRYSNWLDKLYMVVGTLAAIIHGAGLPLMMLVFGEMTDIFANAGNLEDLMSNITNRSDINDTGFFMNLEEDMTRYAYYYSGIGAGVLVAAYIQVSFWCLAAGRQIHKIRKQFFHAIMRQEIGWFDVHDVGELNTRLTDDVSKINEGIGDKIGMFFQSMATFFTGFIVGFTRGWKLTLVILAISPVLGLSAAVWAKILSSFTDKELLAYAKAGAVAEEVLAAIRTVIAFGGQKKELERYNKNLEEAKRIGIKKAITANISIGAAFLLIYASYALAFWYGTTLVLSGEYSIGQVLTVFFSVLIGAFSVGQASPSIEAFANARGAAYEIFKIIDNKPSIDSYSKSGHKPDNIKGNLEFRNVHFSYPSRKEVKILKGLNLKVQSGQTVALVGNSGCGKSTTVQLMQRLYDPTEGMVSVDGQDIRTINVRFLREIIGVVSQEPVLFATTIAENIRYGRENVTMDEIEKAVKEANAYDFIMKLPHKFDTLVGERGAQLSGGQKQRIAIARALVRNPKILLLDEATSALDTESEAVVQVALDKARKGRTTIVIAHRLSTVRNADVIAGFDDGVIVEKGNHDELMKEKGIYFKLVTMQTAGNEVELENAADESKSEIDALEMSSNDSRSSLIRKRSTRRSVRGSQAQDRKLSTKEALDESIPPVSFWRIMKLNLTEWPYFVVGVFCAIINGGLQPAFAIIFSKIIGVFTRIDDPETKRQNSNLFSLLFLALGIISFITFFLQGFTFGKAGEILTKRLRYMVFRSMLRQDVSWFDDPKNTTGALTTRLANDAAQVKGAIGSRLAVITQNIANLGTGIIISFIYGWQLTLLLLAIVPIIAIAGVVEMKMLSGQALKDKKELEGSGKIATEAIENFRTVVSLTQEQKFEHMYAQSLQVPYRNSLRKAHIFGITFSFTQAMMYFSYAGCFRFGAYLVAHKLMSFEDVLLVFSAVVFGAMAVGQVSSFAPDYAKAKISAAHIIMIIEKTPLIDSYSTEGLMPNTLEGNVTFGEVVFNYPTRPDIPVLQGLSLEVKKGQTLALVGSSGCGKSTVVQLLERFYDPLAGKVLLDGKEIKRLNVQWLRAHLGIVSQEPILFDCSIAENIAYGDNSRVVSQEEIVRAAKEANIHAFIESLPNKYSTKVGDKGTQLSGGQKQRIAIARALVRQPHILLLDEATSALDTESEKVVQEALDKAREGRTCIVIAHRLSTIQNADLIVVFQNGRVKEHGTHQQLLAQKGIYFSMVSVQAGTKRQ

## CC1=C[C@H]2O[C@@H]3[C@H](O)C[C@](C)([C@@]2(CO)[C@H](O)C1=O)[C@]31CO1 [DON, deoxynivalenol]
P-gp
  P-gp activation (ATP consumption): activated P-gp in dose-dependent manner
[1]
  genotoxicity: failed to induce genotoxicity
Caco-2 cells [2]
  transepithelial transport, Apical Medium: 73.33 ± 2.90^f %
  transepithelial transport, Basolateral Medium: 21.48 ± 0.91^cde %
  transepithelial transport, Caco-2 Cells: 0.00 ± 0.00^a %
  transepithelial transport, Raw 264.7 Cells: 0.01 ± 0.00^a %
  transepithelial transport, Total: 94.83 ± 2.14^e %
Epithelial cell layers
  transport through the epithelial cell layers: up to 38%
cells
  concentration with statistically significant decrease in viability of cells: 1 µM
mice
  LD50 for mice: 46 to 78 mg/kg
HEK 293T cells
  percentage of DNA in comet tail with respect to the negative control: significantly increased
HEK293T
  combination index, mixture of DAS (6.58 nM): 0.88 ± 0.17 Syn
  combination index, mixture of HT-2 (21.22 nM): 0.87 ± 0.04 Syn
  combination index, mixture of T-2 (3.87 nM): 1.29 ± 0.13 Ant
  type of interaction, mixture of DAS (6.58 nM): 0.88 ± 0.17 Syn (key: Syn: Combination index (CI) < 0.9; Add: 0.9 ≤ CI ≤ 1; Ant: CI > 1)
  type of interaction, mixture of HT-2 (21.22 nM): 0.87 ± 0.04 Syn (key: Syn: Combination index (CI) < 0.9; Add: 0.9 ≤ CI ≤ 1; Ant: CI > 1)
  type of interaction, mixture of T-2 (3.87 nM): 1.29 ± 0.13 Ant (key: Syn: Combination index (CI) < 0.9; Add: 0.9 ≤ CI ≤ 1; Ant: CI > 1)

## C[C@H]1CCCC(=O)CCC/C=C/c2cc(O)cc(O)c2C(=O)O1 [ZEA, zearalenone]
P-gp
  P-gp activation (ATP consumption): activated P-gp in dose-dependent manner
Caco-2 cells [2]
  transepithelial transport, Apical Medium: 32.23 ± 1.71^bc %
  transepithelial transport, Basolateral Medium: 54.24 ± 2.38^gh %
  transepithelial transport, Caco-2 Cells: 0.19 ± 0.01^ab %
  transepithelial transport, Raw 264.7 Cells: 0.05 ± 0.01^a %
  transepithelial transport, Total: 86.70 ± 0.67^de %
cells
  concentration with statistically significant decrease in viability of cells: 25 µM
HEK 293T cells
  percentage of DNA in comet tail with respect to the negative control: no significant DNA damage
HEK293T
  combination index, mixture of DAS (6.58 nM): 0.85 ± 0.07 Syn
  combination index, mixture of HT-2 (21.22 nM): 0.83 ± 0.03 Syn
  combination index, mixture of T-2 (3.87 nM): 0.92 ± 0.01 Add
  type of interaction, mixture of DAS (6.58 nM): 0.85 ± 0.07 Syn (key: Syn: Combination index (CI) < 0.9; Add: 0.9 ≤ CI ≤ 1; Ant: CI > 1)
  type of interaction, mixture of HT-2 (21.22 nM): 0.83 ± 0.03 Syn (key: Syn: Combination index (CI) < 0.9; Add: 0.9 ≤ CI ≤ 1; Ant: CI > 1)
  type of interaction, mixture of T-2 (3.87 nM): 0.92 ± 0.01 Add (key: Syn: Combination index (CI) < 0.9; Add: 0.9 ≤ CI ≤ 1; Ant: CI > 1)
In vitro
  IC50: > 50 nM
HEK293 cells
  concentration range damaging DNA in a concentration-dependent manner: 2500 to 20000 nM

## C[C@H]1CCC[C@@H](O)CCC/C=C/c2cc(O)cc(O)c2C(=O)O1 [β-ZEA]
Caco-2 cells [3]
  share of total metabolites produced by Caco-2 cells: 32%

## CC[C@H](C)[C@H]1C(=O)O[C@H](C(C)C)C(=O)N(C)[C@@H](C(C)C)C(=O)O[C@H](C(C)C)C(=O)N(C)[C@@H](C(C)C)C(=O)O[C@H](C(C)C)C(=O)N1C [ENN-B1, enniatin B1]
Caco-2 cells [4]
  concentration with significant DNA damage: 3000 nM
Caco-2 cells [2]
  transepithelial transport, Apical Medium: 10.46 ± 2.43^a %
  transepithelial transport, Basolateral Medium: 28.16 ± 3.37^e %
  transepithelial transport, Caco-2 Cells: 0.51 ± 0.03^ab %
  transepithelial transport, Raw 264.7 Cells: 0.60 ± 0.10^c %
  transepithelial transport, Total: 39.72 ± 4.74^ab %
cells
  concentration with statistically significant decrease in viability of cells: 2 µM
HEK293T
  combination index, mixture of DAS (6.58 nM): 0.82 ± 0.06 Syn
  combination index, mixture of HT-2 (21.22 nM): 0.90 ± 0.05 Add
  combination index, mixture of T-2 (3.87 nM): 0.88 ± 0.07 Syn
  type of interaction, mixture of DAS (6.58 nM): 0.82 ± 0.06 Syn (key: Syn: Combination index (CI) < 0.9; Add: 0.9 ≤ CI ≤ 1; Ant: CI > 1)
  type of interaction, mixture of HT-2 (21.22 nM): 0.90 ± 0.05 Add (key: Syn: Combination index (CI) < 0.9; Add: 0.9 ≤ CI ≤ 1; Ant: CI > 1)
  type of interaction, mixture of T-2 (3.87 nM): 0.88 ± 0.07 Syn (key: Syn: Combination index (CI) < 0.9; Add: 0.9 ≤ CI ≤ 1; Ant: CI > 1)
In vitro
  IC50: > 50 nM

## COc1c(C)c2c(c(O)c1C/C=C(\C)CCC(=O)O)C(=O)OC2 [MPA, mycophenolic acid, reference compound]
[5]
  IC50: > 156 nM
Caco-2 cells [2]
  transepithelial transport, Apical Medium: 57.27 ± 0.79^ef %
  transepithelial transport, Basolateral Medium: 39.77 ± 0.52^f %
  transepithelial transport, Caco-2 Cells: 0.00 ± 0.00^a %
  transepithelial transport, Raw 264.7 Cells: 0.02 ± 0.00^a %
  transepithelial transport, Total: 97.07 ± 0.27^e %
HEK 293T cells
  percentage of DNA in comet tail with respect to the negative control: no significant DNA damage
HEK293T
  combination index, mixture of DAS (6.58 nM): 0.83 ± 0.07 Syn
  combination index, mixture of HT-2 (21.22 nM): 0.90 ± 0.04 Add
  combination index, mixture of T-2 (3.87 nM): 0.85 ± 0.05 Syn
  type of interaction, mixture of DAS (6.58 nM): 0.83 ± 0.07 Syn (key: Syn: Combination index (CI) < 0.9; Add: 0.9 ≤ CI ≤ 1; Ant: CI > 1)
  type of interaction, mixture of HT-2 (21.22 nM): 0.90 ± 0.04 Add (key: Syn: Combination index (CI) < 0.9; Add: 0.9 ≤ CI ≤ 1; Ant: CI > 1)
  type of interaction, mixture of T-2 (3.87 nM): 0.85 ± 0.05 Syn (key: Syn: Combination index (CI) < 0.9; Add: 0.9 ≤ CI ≤ 1; Ant: CI > 1)
In vitro
  IC50: > 50 nM

## Cc1cc(O)cc2oc(=O)c3c(O)cc(O)cc3c12 [AOH, alternariol]
P-gp
  P-gp activation (ATP consumption): activated P-gp in dose-dependent manner
[6]
  concentrations significantly increasing the rate of DNA breaks: ≥ 1000 nM
Caco-2 cells [2]
  metabolites found by non-target U-HPLC-MS analysis: 3-O-glucuronide and 9-O-glucuronide
  transepithelial transport, Apical Medium: 39.00 ± 22.02^cd %
  transepithelial transport, Basolateral Medium: 59.97 ± 2.86^h %
  transepithelial transport, Caco-2 Cells: 0.04 ± 0.02^a %
  transepithelial transport, Raw 264.7 Cells: 0.07 ± 0.02^h %
  transepithelial transport, Total: 99.08 ± 24.47^e %
cells
  concentration with statistically significant decrease in viability of cells: 50 µM
HEK 293T cells
  percentage of DNA in comet tail with respect to the negative control: significantly increased
HEK 293T cells; 25 µM, 24 h
  comet tails (percentage of DNA): about 55%
HEK293T
  combination index, mixture of DAS (6.58 nM): 0.91 ± 0.07 Add
  combination index, mixture of HT-2 (21.22 nM): 0.92 ± 0.02 Add
  combination index, mixture of T-2 (3.87 nM): 1.00 ± 0.09 Add
  type of interaction, mixture of DAS (6.58 nM): 0.91 ± 0.07 Add (key: Syn: Combination index (CI) < 0.9; Add: 0.9 ≤ CI ≤ 1; Ant: CI > 1)
  type of interaction, mixture of HT-2 (21.22 nM): 0.92 ± 0.02 Add (key: Syn: Combination index (CI) < 0.9; Add: 0.9 ≤ CI ≤ 1; Ant: CI > 1)
  type of interaction, mixture of T-2 (3.87 nM): 1.00 ± 0.09 Add (key: Syn: Combination index (CI) < 0.9; Add: 0.9 ≤ CI ≤ 1; Ant: CI > 1)
In vitro
  IC50: > 50 nM

## CC(C)[C@H]1C(=O)O[C@H](C(C)C)C(=O)N(C)[C@@H](C(C)C)C(=O)O[C@H](C(C)C)C(=O)N(C)[C@@H](C(C)C)C(=O)O[C@H](C(C)C)C(=O)N1C [ENN-B, enniatin B]
Caco-2 cells [4]; 3 µM
  genotoxic effect: did not show genotoxic effect
Caco-2 cells [2]
  metabolites found by non-target U-HPLC-MS analysis: metabolite M6
  transepithelial transport, Apical Medium: 24.08 ± 3.20^abc %
  transepithelial transport, Basolateral Medium: 25.49 ± 4.31^e %
  transepithelial transport, Caco-2 Cells: 1.15 ± 0.25^b %
  transepithelial transport, Raw 264.7 Cells: 0.31 ± 0.03^b %
  transepithelial transport, Total: 51.02 ± 7.70^bc %
cells
  concentration with statistically significant decrease in viability of cells: 2 µM
HEK293T
  combination index, mixture of DAS (6.58 nM): 0.79 ± 0.08 Syn
  combination index, mixture of HT-2 (21.22 nM): 0.87 ± 0.05 Syn
  combination index, mixture of T-2 (3.87 nM): 1.11 ± 0.10 Ant
  type of interaction, mixture of DAS (6.58 nM): 0.79 ± 0.08 Syn (key: Syn: Combination index (CI) < 0.9; Add: 0.9 ≤ CI ≤ 1; Ant: CI > 1)
  type of interaction, mixture of HT-2 (21.22 nM): 0.87 ± 0.05 Syn (key: Syn: Combination index (CI) < 0.9; Add: 0.9 ≤ CI ≤ 1; Ant: CI > 1)
  type of interaction, mixture of T-2 (3.87 nM): 1.11 ± 0.10 Ant (key: Syn: Combination index (CI) < 0.9; Add: 0.9 ≤ CI ≤ 1; Ant: CI > 1)
In vitro
  IC50: > 50 nM

## C[C@H]1CCC[C@H](O)CCC/C=C/c2cc(O)cc(O)c2C(=O)O1 [α-ZEA]
Caco-2 cells [3]
  share of total metabolites produced by Caco-2 cells: 41%
